Assay results taken from patent publication US10717758B2, “D-amino acid compounds for liver disease” (priority 2012, dated 2020).
Where two headings read alike, the source gives them in different places.

Experiments:
[1] = system: HCV genotype 1b replicon; assay: HCV replicon assay; format: cell-based
Procedure: Huh-7-derived cell line (Zluc) that harbors an HCV genotype 1b replicon and a luciferase reporter gene was grown in Dulbecco's Modified Eagle Medium (DMEM) supplemented with 10% fetal bovine serum, 2 mM GlutaMAX, 1% MEM nonessential amino acids, 100 IU/mL penicillin, 100 μg/mL streptomycin, and 0.5 mg/mL Geneticin® (G418). For dose response testing the cells were seeded in 96-well plates at 7.5×10^3 cells per well in a volume of 50 μL, and incubated at 37° C./5% CO2. Drug solutions were made up freshly in Huh-7 media as 2× stocks. Ten additional 5-fold dilutions were prepared from these stocks in DMEM without G418. At least three hours after Zluc cells were seeded, drug treatment was initiated by adding 50 μL of drug dilutions to the plates in duplicate. Final concentrations of drug ranged from 100 μM to […]. Cells were then incubated at 37° C./5% CO2. Alternatively, compounds were tested at two concentrations (1 μM and 10 μM). […] For this, media was removed from the plates via gentle tapping. Fifty microliters of ONE-glo luciferase assay reagent was added to each well. The plates were shaken gently for 3 min at room temperature and luminescence was measured on a Victor^3 V 1420 multilabel counter (Perkin Elmer) with a 1 second read time using a 700 nm cut-off filter. The EC50 values were calculated from dose response curves from the resulting best-fit equations determined by Microsoft Excel and XLfit 4.1 software. When screening at two fixed concentrations, the results were expressed as % inhibition at 1 μM and 10 μM.

[2] = Cytotoxicity evaluation in Zluc cells (CellTiter-Blue); format: cell-based, human; conditions: human, read-out: HCV Replicon CC50
Procedure: For cytotoxicity evaluation, Zluc cells were treated with compound as described herein, and cell viability was monitored using the CellTiter-Blue Cell Viability Assay (Promega) by adding 20 μL of the assay solution to each well. The plates were then incubated at 37° C./5% CO2 for at least 3 hours.

[3] = system: fresh mouse hepatocyte; assay: Release of active metabolite in primary hepatocytes (mouse); format: in vitro ADME; conditions: 10 μM
Procedure: Plates of fresh human and mouse hepatocytes were obtained on ice. The medium was removed and replaced with hepatocyte culture medium (William's E supplemented with penicillin-streptomycin, 1% L-glutamine, 1% insulin-transferrin-selenium and 0.1 μM Dexamethasone (Invitrogen) or with Invitro GRO HI medium complemented with Torpedo antibiotics (Celsis)). Cells were left overnight in an incubator at 37° C. to acclimatize to culture and the medium.
Hepatocyte incubations were conducted at a final volume of 0.5 mL hepatocyte culture medium/well (0.8 million cells/well for human and 0.5 million cells/well for mouse; 12 well plate no overlay, collagen coat). Culture medium from overnight incubation of cells was removed and replaced with fresh medium, pre-warmed to 37° C., containing 10 μM of test compound from a stock solution in DMSO (final DMSO concentration was 0.1%). At each specific time point, incubation medium was removed and cell monolayers were carefully washed two times with ice-cold PBS. Following the last wash, all PBS was carefully removed and 1.0 mL of extraction solution (ice-cold 70% methanol/30% water) added. Cells were scraped off and suspended in the extraction solution, transferred to 2 mL polypropylene microfuge tubes and intracellular contents extracted overnight at −20° C.
After the overnight treatment the cellular extracts were prepared by centrifugation at 16,000×g for 10 min to remove cellular debris. The remaining sample was then dried using a refrigerated centrivap concentrator. Dry extracts were reconstituted in 1000 μL of HPLC-grade water and centrifuged at 16,000×g for 10 min. Aliquots (100 μL each) of the supernatant were transferred into a 96 well plate and internal standard (4 ng/mL final concentration) was added as the internal standard (IS) for LC-MS/MS analysis.
The incubation time points were 6, 24 and 48 hours for human hepatocytes and 1, 4, 8, 12 and 24 hours for mouse hepatocytes.

[4] = system: Huh-7 cells; assay: Release of active metabolite in Huh-7 cells; format: in vitro ADME, human; conditions: Table 7
Procedure: Huh-7 cells were plated in 1 mL culture medium (DMEM, containing glucose, L-glutamine and sodium pyruvate, 10% FBS, 100 IU/mL penicillin, 100 μg/mL streptomycin, 2 mM GlutaMAX, 1% MEM non-essential amino acids) at the concentration 0.8, 0.4 and 0.2 million cells per well on 6 well plates for 24, 48 and 72 hr treatment, respectively. Plated cells were incubated overnight at 37° C. in an incubator.
The following morning test compound was diluted to 20 μM from a stock solution in DMSO in fresh culture medium pre-warmed to 37° C. and 1 mL of the solution/well was added to cells. A final medium volume per well was 2.0 mL, test compound concentration in well was 10 μM and final DMSO concentration was 0.1%.
After 24, 48 or 72 hr, the medium was carefully removed and cell monolayers were washed twice with 2 mL ice-cold PBS per well. Following the last wash, all PBS was carefully removed and 1.0 mL of extraction solution (ice-cold 70% methanol) added. The plate was tightly covered with Parafilm, plastic plate cover and Parafilm again and an intracellular content was extracted at −20° C. for 24 hr.
After 24 hr the extracts were transferred into polypropylene microfuge tubes and dry on a refrigerated centrivap concentrator. Dry residues were reconstituted in 250 μL of HPLC-grade water and centrifuged at 16,000×g for 10 min. Aliquots (100 μL each) of the supernatants were transferred into a 96 well plate and internal standard (4 ng/mL final concentration) was added as the internal standard (IS) for LC-MS/MS analysis.

[5] = target: T1, cathepsin A (CatA) (Homo sapiens, UniProt P10619); assay: Hydrolysis of prodrugs by Cathepsin A; format: in vitro ADME; conditions: time not given; 100 μM compound, 37° C., pH 6.0
T1 sequence (P10619 29-326 limits assumed): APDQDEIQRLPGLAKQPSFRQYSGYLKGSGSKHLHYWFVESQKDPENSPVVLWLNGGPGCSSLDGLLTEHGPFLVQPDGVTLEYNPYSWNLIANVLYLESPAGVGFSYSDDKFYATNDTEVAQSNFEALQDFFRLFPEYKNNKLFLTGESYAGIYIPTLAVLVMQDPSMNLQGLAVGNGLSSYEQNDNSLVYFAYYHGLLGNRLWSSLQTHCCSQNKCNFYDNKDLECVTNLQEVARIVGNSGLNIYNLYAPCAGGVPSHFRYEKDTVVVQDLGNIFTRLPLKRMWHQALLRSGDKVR
T1 sequence (P10619 327-480 limits assumed): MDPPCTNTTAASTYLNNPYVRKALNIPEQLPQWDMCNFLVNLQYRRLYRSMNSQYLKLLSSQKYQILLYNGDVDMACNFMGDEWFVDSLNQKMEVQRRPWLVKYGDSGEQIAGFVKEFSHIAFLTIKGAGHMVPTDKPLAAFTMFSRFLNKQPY
Procedure: CatA, cathepsin L (CatL) and CES1 were purchased from R & D Systems (Minneapolis, Minn.). Prior to the enzymatic hydrolysis reactions, CatA was activated according to the manufacturer's instruction. Briefly, CatA (0.05 μg/μL) was incubated with CatL (0.005 μg/μL) for 30 min at 37° C. in 25 mM MES pH 6.0 containing 5 mM DTT. The reaction was stopped by addition of the CatL specific inhibitor E64 (10 μM).
The CatA assay was performed at 37° C. The reaction mixture contained 25 mM MES buffer pH 6.0, 100 mM NaCl, 4 mM DTT and 100 μM of the compound. The reaction was started by addition of the activated CatA enzyme to a final concentration of 0.005 μg/μL. […] Reactions were stopped by mixing the sample with an equal volume of ice-cold methanol, and were loaded on a HPLC for analysis.

[6] = target: T2, carboxylesterase 1 (CES1) (Homo sapiens, UniProt P23141); assay: Hydrolysis of prodrugs by Carboxylesterase 1; format: in vitro ADME; conditions: for CES1 hydrolysis: 100 μM compound, 37° C., pH 7.5
T2 construct: purchased R & D Systems (Minneapolis, Minn.)
T2 sequence (P23141 18-567): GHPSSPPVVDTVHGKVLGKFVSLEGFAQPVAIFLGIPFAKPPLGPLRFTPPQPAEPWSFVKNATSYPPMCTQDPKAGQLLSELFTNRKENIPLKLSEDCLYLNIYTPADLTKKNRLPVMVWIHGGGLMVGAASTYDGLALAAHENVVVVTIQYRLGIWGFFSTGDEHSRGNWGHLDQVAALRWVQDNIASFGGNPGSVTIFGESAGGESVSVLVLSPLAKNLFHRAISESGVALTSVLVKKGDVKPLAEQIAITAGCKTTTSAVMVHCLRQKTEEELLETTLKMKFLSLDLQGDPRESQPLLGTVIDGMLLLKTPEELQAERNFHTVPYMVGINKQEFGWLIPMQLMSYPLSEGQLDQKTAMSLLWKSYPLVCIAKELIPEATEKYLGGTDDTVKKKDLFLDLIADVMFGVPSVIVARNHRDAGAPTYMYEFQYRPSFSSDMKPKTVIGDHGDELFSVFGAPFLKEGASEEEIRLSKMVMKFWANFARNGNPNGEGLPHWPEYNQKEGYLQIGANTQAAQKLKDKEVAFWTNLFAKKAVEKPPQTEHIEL
Procedure: CES1 assay was performed at 37° C. in the reaction mixture containing 50 mM Tris/HCl buffer pH 7.5 and 100 μM of the compound. Reaction was started by addition of the CES1 to the final concentration 0.01 μg/mL. 100 μL aliquots were taken after 0.5 min, 3 hrs and 21 hrs of the incubation and the reaction was stopped by mixing with 100 μl of the ice-cold methanol prior to HPLC analysis.
Samples were analyzed by HPLC using 5 μC-18, 4.6×250 mm Phenomenex® Columbus column (Phenomenex USA, Calif.). The mobile phase consisted of buffer A (25 mM potassium phosphate with 5 mM tetrabutylammonium dihydrogen phosphate pH 6.3) and buffer B (100% methanol).

[7] = Liver TP formation and liver targeting in vivo (Example 6, Table 7); design: species or system mice and monkey
From the text: The in vitro antiviral inactivity of Z4 and Z2 is thought to reflect an inability of Huh-7 replicon cells to metabolize the prodrug moiety.

[8] = Plasma nucleoside and liver triphosphate PK after single oral dose (Example 4); format: in vivo, CD-1 mice; conditions: at 1 μmol/kg, single oral dose 10 mg/kg in PEG 200
Procedure: Plasma samples were analyzed for nucleoside by LC-MS/MS. The internal standard (IS) was either 2′-MeG-D3 or tiapride. For protein precipitation and extraction, each plasma sample (50 μL) was treated with 500 μL of 0.2% formic acid in acetonitrile and 20 μL of the internal standard working solution. After vortexing and centrifugation, 500 μL of the sample extracts were transferred to a new plate, dried under N2 at ˜28° C. and reconstituted with 75 μL of 0.2% FA in water. The extracts were chromatographed on an Aquasil C18 column using a gradient system of 0.2% formic acid in water and acetonitrile. The analytes were detected and quantified by tandem mass spectrometry in positive ion mode on an MDS Sciex API5000 equipped with a Turbo Ionspray® interface. The calibration range was 0.500 (LLOQ) to 200 ng/mL in mouse plasma.
Internal standard solution was added to the homogenate followed by neutralization with 20% ammonium hydroxide solution and addition of 500 μL 1% formic acid. The tissue samples were extracted by weak anion exchange solid phase extraction (SPE). Post extraction, the eluates were evaporated under nitrogen, followed by reconstitution before injection onto the LC-MS/MS system.

[9] = Hepatitis C virus, 72 h, Zluc (Huh-7-derived) cells, luciferase reporter, 72 hours, read-out: HCV Replicon EC50
[10] = Hepatitis C virus, Huh-7, read-out: EC50 (replicon reproduction), genotype 1b HCV replicon-bearing human hepatoma cell line (Huh-7)

| Structure (SMILES) | EC50 [1, 9] [µM] | CC50 [2] [µM] | MsH AUC [3] [pmol.hr/mill cells] | MsH Cmax [3] [pmol/mill cells] | EC50 [1, 10] [µM] | Huh-7 AUC0-72 [4] [pmol*hr/10^6cells] | CatA hydrolysis [5] [%] | Hydrolysis by CES1 [6] | CES1 hydrolysis ([6]; 3 h) [% @] | CES1 hydrolysis ([6]; 21 h) | Liver:plasma ratio of drug metabolites [7] | also measured |
| --- | --- | --- | --- | --- | --- | --- | --- | --- | --- | --- | --- | --- |
| CC(C)OC(=O)[C@@H](C)NP(=O)(OC[C@H]1O[C@@H](n2ccc(=O)[nH]c2=O)[C@](C)(Cl)[C@@H]1O)Oc1ccccc1 (single isomer, unassigned) [40i Diastereomer 1] | > 10 | > 50 | 4052 | 198 |  |  |  |  |  |  |  |  |
| CCOc1nc(N)nc2c1ncn2[C@@H]1O[C@H](COP(=O)(N[C@H](C)C(=O)OC(C)C)Oc2ccccc2)C[C@@]1(C)F (single isomer, unassigned) [502a Diastereomer 1] | 1 to 10 | < 50 |  |  |  |  |  |  |  |  |  |  |
| CC(C)OC(=O)[C@@H](C)NP(=O)(OC[C@H]1O[C@@H](n2ccc(=O)[nH]c2=O)[C@](C)(Cl)[C@@H]1O)Oc1ccccc1 (single isomer, unassigned) [Compound 40i Diastereomer 1] |  |  |  |  | > 50 | 436.9 | 0 | processed | 23 | 3 h; 49% | high liver:plasma ratio of drug metabolites |  |
| CC(C)OC(=O)[C@@H](C)NP(=O)(OC[C@H]1O[C@@H](n2ccc(=O)[nH]c2=O)[C@](C)(Cl)[C@@H]1O)Oc1ccccc1 (single isomer, unassigned; diastereomer 2) [40i Diastereomer 2] |  |  | 1073 | 89 |  |  |  |  |  |  |  | Ms Plasma nucleoside AUC [8]: 0.0036 M·s; Cmax ([8]; read-out: Ms Plasma nucleoside Cmax): 64 nM |
| CC(C)OC(=O)[C@@H](C)NP(=O)(OC[C@H]1O[C@@H](n2ccc(=O)[nH]c2=O)[C@](C)(Cl)[C@@H]1O)Oc1ccccc1 (single isomer, unassigned; diastereomer 2) [Compound 40i Diastereomer 2] |  |  |  |  |  |  | 0 |  |  | 4.5% @ |  | EC50 ([1]; Table 7, read-out: EC50): 7 µM; Liver TP [7]: 4400 pmol·h/g |
| CC(C)OC(=O)[C@@H](C)N[P@@](=O)(OC[C@H]1O[C@@H](n2ccc(=O)[nH]c2=O)[C@](C)(F)[C@@H]1O)Oc1ccccc1 [Compound (804a) Ia (RP isomer), D-Alanine, N—((RP,2′R)-2′-deoxy-2′-fluoro-2′-methyl-P-phenyl-5′-uridylyl)-, 1-methylethyl ester] |  |  |  |  | > 50 | 720.4 | 0 | processed | 10 | 3 h; 26% | high liver:plasma ratio of drug metabolites | EC50 ([1]; Hepatitis C virus, Table 7, read-out: EC50): > 50 µM |
